Test results published in PubChem BioAssay AID330 (DTP/NCI, 2004).
Several values for one entry are separate records, joined by “and”; a condition that tells them apart may be missing. Equal entries are not always repeated. Toxic doses and inconclusive results are not listed. Rule for the calls: active = survival T/C of 150% or more; inactive = T/C below 125% in these data.

Tested on: P388 leukemia ip, CD2F1 mice, survival T/C
Experiment: NCI In Vivo Anticancer Drug Screen. Data for tumor model P388 Leukemia (intraperitoneal) in CD2F1 (CDF1) mice
Settings: endpoint: median survival time, higher = longer survival
Summary of the method: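 Mice carrying the transplanted tumor received test compound or vehicle. Survival was recorded in each group, and the value is the treated-group measurement divided by that of the vehicle-treated control group.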

[1] = dose: 100.0 mg/kg/injection, schedule: Q04DX002 (ip), vehicle: saline
[2] = dose: 200.0 mg/kg/injection, schedule: Q04DX002 (ip), vehicle: saline
[3] = dose: 50.0 mg/kg/injection, schedule: Q01DX009 (ip), vehicle: saline
[4] = dose: 100.0 mg/kg/injection, schedule: Q04DX002 (ip), vehicle: saline with Tween-80
[5] = dose: 200.0 mg/kg/injection, schedule: Q04DX002 (ip), vehicle: saline with Tween-80
[6] = dose: 400.0 mg/kg/injection, schedule: Q04DX002 (ip), vehicle: saline with Tween-80
[7] = dose: 50.0 mg/kg/injection, schedule: Q01DX005 (ip), vehicle: Klucel (hydroxypropylcellulose) (HPC)
[8] = dose: 100.0 mg/kg/injection, schedule: Q01DX005 (ip), vehicle: Klucel (hydroxypropylcellulose) (HPC)
[9] = dose: 50.0 mg/kg/injection, schedule: Q01DX009 (ip), vehicle: saline with Tween-80
[10] = dose: 100.0 mg/kg/injection, schedule: Q01DX009 (ip), vehicle: saline with Tween-80
[11] = dose: 200.0 mg/kg/injection, schedule: Q01DX009 (ip), vehicle: saline with Tween-80
[12] = dose: 50.0 mg/kg/injection, schedule: Q01DX009 (ip), vehicle: Klucel (hydroxypropylcellulose) (HPC)
[13] = dose: 100.0 mg/kg/injection, schedule: Q01DX009 (ip), vehicle: Klucel (hydroxypropylcellulose) (HPC)

Measured: T/C

CCO/C=C1/N=C(c2cc([N+](=O)[O-])cc([N+](=O)[O-])c2C)OC1=O
inactive: dose: 60.0 mg/kg/injection, schedule: Q01DX005 (ip), vehicle: saline + Tween-80 + alcohol 93 % of control | dose: 120.0 mg/kg/injection, schedule: Q01DX005 (ip), vehicle: saline + Tween-80 + alcohol 94 % of control | dose: 240.0 mg/kg/injection, schedule: Q01DX005 (ip), vehicle: saline + Tween-80 + alcohol 88 % of control

N#C/C=C/C#N
inactive: dose: 0.15 mg/kg/injection, schedule: Q01DX009 (ip), vehicle: saline 100 % of control | dose: 0.3 mg/kg/injection, schedule: Q01DX009 (ip), vehicle: saline 109 % of control | dose: 0.6 mg/kg/injection, schedule: Q01DX009 (ip), vehicle: saline 113 % of control

CC1(C)CN(c2ccccc2)N(C(=O)C(=O)N2C(=O)C(C)(C)CN2c2ccccc2)C1=O
inactive: [1] 104 % of control | [2] 102 % of control | dose: 400.0 mg/kg/injection, schedule: Q04DX002 (ip), vehicle: saline 100 % of control

COc1ccccc1C1OC2=Nc3cc(C)c(C)cc3NC2C1=O (stereo unspecified)
inactive: dose: 30.0 mg/kg/injection, schedule: Q01DX005 (ip), vehicle: Klucel (hydroxypropylcellulose) (HPC) 96 % of control | dose: 60.0 mg/kg/injection, schedule: Q01DX005 (ip), vehicle: Klucel (hydroxypropylcellulose) (HPC) 93 % of control | dose: 120.0 mg/kg/injection, schedule: Q01DX005 (ip), vehicle: Klucel (hydroxypropylcellulose) (HPC) 90 % of control | dose: 240.0 mg/kg/injection, schedule: Q01DX005 (ip), vehicle: Klucel (hydroxypropylcellulose) (HPC) 95 % of control

CCOC(=O)c1ccc2nc(/N=C/c3ccccc3Cl)sc2c1
inactive: [3] 105 % of control | dose: 100.0 mg/kg/injection, schedule: Q01DX009 (ip), vehicle: saline 108 % of control | dose: 200.0 mg/kg/injection, schedule: Q01DX009 (ip), vehicle: saline 105 % of control

CN=C(C)Nc1ccccc1OC
inactive: dose: 12.5 mg/kg/injection, schedule: Q01DX009 (ip), vehicle: saline 111 % of control | dose: 25.0 mg/kg/injection, schedule: Q01DX009 (ip), vehicle: saline 114 % of control | [3] 113 % of control and 97 % of control

CC(=O)C(C)S(=O)(=O)O (stereo unspecified)
inactive: dose: 100.0 mg/kg/injection, schedule: Q01DX001 (ip), vehicle: saline 106 % of control | dose: 200.0 mg/kg/injection, schedule: Q01DX001 (ip), vehicle: saline 106 % of control | dose: 400.0 mg/kg/injection, schedule: Q01DX001 (ip), vehicle: saline 106 % of control

Cn1c2ccc(Cl)cc2c2c3ncncc3ccc21
inactive: dose: 50.0 mg/kg/injection, schedule: Q01DX001 (ip), vehicle: Klucel (hydroxypropylcellulose) (HPC) 96 % of control | dose: 100.0 mg/kg/injection, schedule: Q01DX001 (ip), vehicle: Klucel (hydroxypropylcellulose) (HPC) 89 % of control | dose: 200.0 mg/kg/injection, schedule: Q01DX001 (ip), vehicle: Klucel (hydroxypropylcellulose) (HPC) 91 % of control

CCCCCCCCCC(=O)CCCCC
inactive: dose: 100.0 mg/kg/injection, schedule: Q01DX009 (ip), vehicle: other 115 % of control | dose: 200.0 mg/kg/injection, schedule: Q01DX009 (ip), vehicle: other 115 % of control | dose: 400.0 mg/kg/injection, schedule: Q01DX009 (ip), vehicle: other 90 % of control

CN=C(N)N/N=C(\C)c1ccc2c(c1)Cc1cccc(Br)c1-2
inactive: dose: 25.0 mg/kg/injection, schedule: Q04DX002 (ip), vehicle: saline with Tween-80 111 % of control | dose: 50.0 mg/kg/injection, schedule: Q04DX002 (ip), vehicle: saline with Tween-80 109 % of control | [4] 109 % of control

CC(=O)C1C(C=C(C)C)C1(C)C (stereo unspecified)
inactive: [4] 96 % of control | [5] 106 % of control | [6] 101 % of control

C/C=C1/CN2CCC34c5ccccc5N(C)C23C(O)CC1C4(CO)C(=O)OC (stereo unspecified)
inactive: dose: 13.75 mg/kg/injection, schedule: Q01DX005 (ip), vehicle: saline + Tween-80 + alcohol 106 % of control | dose: 27.5 mg/kg/injection, schedule: Q01DX005 (ip), vehicle: saline + Tween-80 + alcohol 102 % of control | dose: 55.0 mg/kg/injection, schedule: Q01DX005 (ip), vehicle: saline + Tween-80 + alcohol 110 % of control | dose: 110.0 mg/kg/injection, schedule: Q01DX005 (ip), vehicle: saline + Tween-80 + alcohol 100 % of control

C1CCCCC2=NCCC(CCCC1)C2 (stereo unspecified)
inactive: [7] 103 % of control | [8] 107 % of control

CCCC(O)(CC)/C(C)=N/O (stereo unspecified)
inactive: [9] 96 % of control | [10] 91 % of control | [11] 91 % of control

CSc1nc(N)c(NS(=O)(=O)c2ccccc2[N+](=O)[O-])c(=O)[nH]1
inactive: [7] 100 % of control | [8] 90 % of control | dose: 200.0 mg/kg/injection, schedule: Q01DX005 (ip), vehicle: Klucel (hydroxypropylcellulose) (HPC) 90 % of control

CSc1cccc(NC(=O)Nc2ccc(S(N)(=O)=O)cc2)c1
inactive: [12] 92 % of control | [13] 87 % of control

C/C(C(=O)NC1CC1)=C(\C)c1ccc(Cl)cc1
inactive: dose: 50.0 mg/kg/injection, schedule: Q04DX002 (ip), vehicle: Klucel (hydroxypropylcellulose) (HPC) 100 % of control | dose: 100.0 mg/kg/injection, schedule: Q04DX002 (ip), vehicle: Klucel (hydroxypropylcellulose) (HPC) 103 % of control | dose: 200.0 mg/kg/injection, schedule: Q04DX002 (ip), vehicle: Klucel (hydroxypropylcellulose) (HPC) 102 % of control

Cc1cc(=O)n(C)c2ccc(N)cc12
inactive: dose: 25.0 mg/kg/injection, schedule: Q01DX009 (ip), vehicle: Klucel (hydroxypropylcellulose) (HPC) 101 % of control | [12] 100 % of control | [13] 101 % of control

O=[N+]([O-])c1ccc(C2OCC3CSCN32)cc1 (stereo unspecified)
inactive: [4] 107 % of control | [5] 97 % of control | [6] 97 % of control

CC1=CC(=O)C(c2ccc(O)cc2O)=CC1=O
inactive: dose: 2.5 mg/kg/injection, schedule: Q01DX009 (ip), vehicle: saline with Tween-80 100 % of control | dose: 5.0 mg/kg/injection, schedule: Q01DX009 (ip), vehicle: saline with Tween-80 95 % of control | dose: 10.0 mg/kg/injection, schedule: Q01DX009 (ip), vehicle: saline with Tween-80 86 % of control

CCN(CC)Cc1cc(N=Nc2ccc3c(c2)c2ccccc2n3CC)c2ccccc2c1O
inactive: [9] 86 % of control | [10] 93 % of control | [11] 93 % of control

O=[N+]([O-])/C=C/c1cc2c(ccc3ccccc32)[nH]1
inactive: dose: 50.0 mg/kg/injection, schedule: Q01DX005 (ip), vehicle: saline with Tween-80 91 % of control | dose: 100.0 mg/kg/injection, schedule: Q01DX005 (ip), vehicle: saline with Tween-80 93 % of control | dose: 200.0 mg/kg/injection, schedule: Q01DX005 (ip), vehicle: saline with Tween-80 99 % of control

CC(=O)C1CC(=O)c2c(O)ccc(O)c2C1 (stereo unspecified)
inactive: dose: 25.0 mg/kg/injection, schedule: Q01DX009 (ip), vehicle: water 94 % of control | dose: 50.0 mg/kg/injection, schedule: Q01DX009 (ip), vehicle: water 96 % of control | dose: 100.0 mg/kg/injection, schedule: Q01DX009 (ip), vehicle: water 89 % of control | dose: 200.0 mg/kg/injection, schedule: Q01DX009 (ip), vehicle: water 111 % of control | dose: 400.0 mg/kg/injection, schedule: Q01DX009 (ip), vehicle: water 109 % of control

CNC1C(O)C(OC2C(N)CC(N)C(OC3OC(C(C)O)C(O)C(O)C3N)C2O)OCC1(C)O (stereo unspecified)
inactive: dose: 7.5 mg/kg/injection, schedule: Q01DX005 (ip), vehicle: saline 108 % of control | dose: 15.0 mg/kg/injection, schedule: Q01DX005 (ip), vehicle: saline 107 % of control | dose: 30.0 mg/kg/injection, schedule: Q01DX005 (ip), vehicle: saline 101 % of control

Cc1cc(-c2ccccc2)c2ccccc2c1N(CC(=O)O)S(=O)(=O)c1ccccc1
inactive: dose: 100.0 mg/kg/injection, schedule: Q04DX003 (ip), vehicle: saline with Tween-80 100 % of control | [11] 115 % of control | dose: 200.0 mg/kg/injection, schedule: Q04DX003 (ip), vehicle: saline with Tween-80 100 % of control | dose: 400.0 mg/kg/injection, schedule: Q04DX003 (ip), vehicle: saline with Tween-80 90 % of control

c1cc2cc(c1)CSCc1cccc(c1)CSCc1cccc(c1)CSC2
inactive: dose: 50.0 mg/kg/injection, schedule: Q04DX002 (ip), vehicle: saline 96 % of control | [1] 93 % of control | [2] 93 % of control
